Columns and labels:
Rhodotorula pilimanae [1] = assay: Fungal inhibition, spot test on lawn (Table 1, FIG. 1-3); assay type: cell-based; conditions: HPLC peak material purified from P. syringae 31R cultures
Description: Ten μL quantities of undiluted filtrate (1) and multiple aliquots of 2-fold dilutions of the filtrate (2-9) were applied to potato dextrose agar plates with freshly streaked R. pilimanae. The plate was incubated for 1 day at 28° C. The cleared spots show fungicidal growth inhibition.
Ten μL quantities of undiluted (1) and 2^−1 (2), 2^−2 (3) and 2^−3 (4) dilutions of the extracts were applied to potato dextrose agar plates with freshly streaked R. pilimanae. The plate was incubated for 1 day at 28° C. The cleared spots show fungicidal growth inhibition.
SnoMax® (1 g) was suspended in 5 ml H2O. One ml was mixed with 1 ml of acidified acetone, centrifuged, and the supernatant was recovered. An aliquot (200 μL) of the extract was evaporated to near dryness at 40° C. H2O (100 μL) was added and the mixture evenly suspended. Ten μL each of the SnoMax® suspension, extract, and H2O control were spotted onto a fresh lawn of R. pilimanae on PDA medium and incubated at 28° C. for 24 h.
SnoMax® was obtained from the snow making operation of a local Utah ski resort. One gram was suspended in water and an aliquot was extracted with acidified acetone. The extract was dried, suspended in water, and the solutions were tested for inhibitory activity against R. pilimanae grown as a lawn on potato dextrose agar medium (1) (FIG. 3). This assay is determines syringomycin production.

Rhodotorula pilimanae [2] = assay: Effect of pH on the antifungal activity of Snomax suspensions (FIG. 4); assay type: cell-based; conditions: R. pilimanae lawn, 28° C., 36 hours
Description: SnoMax was mixed and suspended with water for 1 hour at room temperature, the pHs were adjusted to 6, 8, or 10 by titrating with dilute solutions of NaOH and HCl, and the suspensions incubated at the final pHs for 1 hour at room temperature. The suspensions were then freeze dried. The freeze dried powders were extracted with acidified acetone, centrifuged, and the supernatant fractions recovered. Acetone was evaporated off at 45° C. and the residues serial diluted (2 fold) in water. Ten microliter aliquots of 2^−1 (a), 2^−2 (b), and 2^−3 (c) dilutions were deposited on a freshly prepared lawn of Rhodotorula pilimanae onto potato-dextrose-casamino acids (PDA-CA) agar medium prepared in Petri dishes. A 10 microliter aliquot of pure syringomycin E (1 mg per ml) was also applied (d). The Petri dishes were incubated at 28° C. for 36 hours. Result: pH 8 and 10 treatments eliminated the antifungal activities of snomax suspension and of syringomycin E, the latter serving as positive control.

Laccaria bicolor = assay: ECM fungal inhibition (Table 1); assay type: cell-based; set-up: key: +=fungicidal; conditions: unpublished results
Description: (§1) In addition to laboratory studies, ECM fungi that exist in high elevation sites of the Rocky Mountains and that are also culturable in artificial media are studied. These include: Amanita muscaria, Boletus edulis, Hebeloma crustuliniform, Laccaria bicolor, Laccaria laccata, Lactarius deliciosus, Lactarius rufus, Suillus brevipes, Suillus tomentosus, Rhizopogon occidentalis, and Rhizopogon subcaerulescens. Cultures of these fungi are available from the laboratory of Kropp, Utah State University or are obtained from the American Type Culture Collection. Syringomycin-containing extracts from P. syringae 31R and SnoMax® are prepared by methods used for extraction of cyclic lipodepsipeptides (FIG. 2) (1). Briefly, equal volumes of acidified acetone are added to bacterial cultures and SnoMax® suspensions. The mixtures are centrifuged and evaporated to give the aqueous extracts for testing. SnoMax® itself is suspended in water (0.1 g per ml), and the suspension is tested for fungicidal activities.
(§2) For testing, the linear growth of the various ECM fungi in the presence and absence (controls) of extracts and SnoMax® suspensions are analyzed. Sterile agar strips (5 cm×1.5 cm, cut from fresh agar plates and placed in sterile plastic petri dishes) are inoculated at one end with a 5 mm diameter inoculum plug of the ECM fungus to be tested. Paper disks (1 cm diameter) are soaked in filter-sterilized extracts and SnoMax® suspensions and placed at the opposite end of the agar strip. Control strips with disks soaked in sterile distilled water are also be prepared. The concentrations of the extracts to be used are based on the independent determination of the minimal inhibitory concentrations needed to inhibit the in vitro growth of the yeast R. pilimanae. Two levels of 2-fold dilutions above and below this concentration are used. The plates are sealed with Parafilm and incubated at room temperature for several weeks. The extent of linear growth is measured and compared. The ages of the inoculum cultures are standardized and all inoculum disks are taken from the actively growing colony margin. […]

Suillus brevipes = assay: ECM fungal inhibition (Table 1); assay type: cell-based; set-up: key: +=fungicidal; conditions: unpublished results
Description: as §1, §2

Suillus tomentosus = assay: ECM fungal inhibition (Table 1); assay type: cell-based; set-up: key: +=fungicidal; conditions: unpublished results
Description: as §1, §2

Rhodotorula pilimanae [3] = test system: Rhodotorula pilimanae; set-up: key: +=fungicidal; conditions: references 4, 5; cited from earlier work
Saccharomyces cerevisiae = test system: Saccharomyces cerevisiae; set-up: key: +=fungicidal; conditions: references 3, 5, 8; cited from earlier work
Candida albicans = test system: Candida albicans; set-up: key: +=fungicidal; conditions: references 3, 8; cited from earlier work
Candida kefyr = test system: Candida kefyr; set-up: key: +=fungicidal; conditions: cited from earlier work
Candida krusei = test system: Candida krusei; set-up: key: +=fungicidal; conditions: cited from earlier work
Candida parapsilosis = test system: Candida parapsilosis; set-up: key: +=fungicidal; conditions: cited from earlier work
Candida rugosa = test system: Candida rugosa; set-up: key: +=fungicidal; conditions: cited from earlier work
Candida tropicalis = test system: Candida tropicalis; set-up: key: +=fungicidal; conditions: cited from earlier work
Mucor sp. = test system: Mucor sp.; set-up: key: +=fungicidal; conditions: cited from earlier work
Microsporium sp. = test system: Microsporium sp.; set-up: key: +=fungicidal; conditions: cited from earlier work
Trichophyton sp. = test system: Trichophyton sp.; set-up: key: +=fungicidal; conditions: cited from earlier work
Cryptococcus neoformans = test system: Cryptococcus neoformans; set-up: key: +=fungicidal; conditions: cited from earlier work
Aspergillus fumigatus = test system: Aspergillus fumigatus; set-up: key: +=fungicidal; conditions: cited from earlier work
Aspergillus flavus = test system: Aspergillus flavus; set-up: key: +=fungicidal; conditions: reference 1; cited from earlier work
Aspergillus niger = test system: Aspergillus niger; set-up: key: +=fungicidal; conditions: cited from earlier work
Fusarium moliniforme = test system: Fusarium moliniforme; set-up: key: +=fungicidal; conditions: cited from earlier work
Fusarium oxysporum = test system: Fusarium oxysporum; set-up: key: +=fungicidal; conditions: cited from earlier work
Fusarium solani = test system: Fusarium solani; set-up: key: +=fungicidal; conditions: cited from earlier work
Penicillium expansum = test system: Penicillium expansum; set-up: key: +=fungicidal; conditions: cited from earlier work
Penicillium digitatum = test system: Penicillium digitatum; set-up: key: +=fungicidal; conditions: cited from earlier work
Penicillium radulatum = test system: Penicillium radulatum; set-up: key: +=fungicidal; conditions: cited from earlier work
Penicillium raistrikii = test system: Penicillium raistrikii; set-up: key: +=fungicidal; conditions: cited from earlier work
Geotricum candidum = test system: Geotricum candidum; set-up: key: +=fungicidal; conditions: references 2, 6, 7, 8; cited from earlier work
Geotricum citri-aurantii = test system: Geotricum citri-aurantii; set-up: key: +=fungicidal; conditions: cited from earlier work
Verticillium dahliae = test system: Verticillium dahliae; set-up: key: +=fungicidal; conditions: cited from earlier work
Botrytis cinera = test system: Botrytis cinera; set-up: key: +=fungicidal; conditions: cited from earlier work
Ceratocystis fimbriata = test system: Ceratocystis fimbriata; set-up: key: +=fungicidal; conditions: cited from earlier work
Ustilago maydis = test system: Ustilago maydis; set-up: key: +=fungicidal; conditions: cited from earlier work
Thielaviopsis basicola = test system: Thielaviopsis basicola; set-up: key: +=fungicidal; conditions: cited from earlier work
Phytophthora infestans = test system: Phytophthora infestans; set-up: key: +=fungicidal; conditions: cited from earlier work
Trichoderma atroviridae = test system: Trichoderma atroviridae; set-up: key: +=fungicidal; conditions: cited from earlier work
Rhizoctonia solani = test system: Rhizoctonia solani; set-up: key: +=fungicidal; conditions: cited from earlier work
Alternaria alternate = test system: Alternaria alternate; set-up: key: +=fungicidal; conditions: cited from earlier work
Aureobasidium pullulans = test system: Aureobasidium pullulans; set-up: key: +=fungicidal; conditions: cited from earlier work
Cladosporium herbarum = test system: Cladosporium herbarum; set-up: key: +=fungicidal; conditions: cited from earlier work
Rhizopus sp. = test system: Rhizopus sp.; set-up: key: +=fungicidal; conditions: cited from earlier work

## syringomycin E
Rhodotorula pilimanae [1]
  growth inhibitory activity against R. pilimanae, other yeasts and filamentous fungi: growth inhibitory activity
Rhodotorula pilimanae [2]; pH 8, 1 hour at room temperature
  antifungal activity after pH treatment: eliminated
Rhodotorula pilimanae [2]; pH 10, 1 hour at room temperature
  antifungal activity after pH treatment: eliminated

## syringomycin [SR]
Laccaria bicolor
  Fungal species inhibited: +
Suillus brevipes
  Fungal species inhibited: +
Suillus tomentosus
  Fungal species inhibited: +
Rhodotorula pilimanae [3]
  Fungal species inhibited: ^c+
Saccharomyces cerevisiae
  Fungal species inhibited: +
Candida albicans
  Fungal species inhibited: +
Candida kefyr
  Fungal species inhibited: +
Candida krusei
  Fungal species inhibited: +
Candida parapsilosis
  Fungal species inhibited: +
Candida rugosa
  Fungal species inhibited: +
Candida tropicalis
  Fungal species inhibited: +
Mucor sp.
  Fungal species inhibited: +
Microsporium sp.
  Fungal species inhibited: +
Trichophyton sp.
  Fungal species inhibited: +
Cryptococcus neoformans
  Fungal species inhibited: +
Aspergillus fumigatus
  Fungal species inhibited: +
Aspergillus flavus
  Fungal species inhibited: +
Aspergillus niger
  Fungal species inhibited: +
Fusarium moliniforme
  Fungal species inhibited: +
Fusarium oxysporum
  Fungal species inhibited: +
Fusarium solani
  Fungal species inhibited: +
Penicillium expansum
  Fungal species inhibited: +
Penicillium digitatum
  Fungal species inhibited: +
Penicillium radulatum
  Fungal species inhibited: +
Penicillium raistrikii
  Fungal species inhibited: +
Geotricum candidum
  Fungal species inhibited: +
Geotricum citri-aurantii
  Fungal species inhibited: +
Verticillium dahliae
  Fungal species inhibited: +
Botrytis cinera
  Fungal species inhibited: +
Ceratocystis fimbriata
  Fungal species inhibited: +
Ustilago maydis
  Fungal species inhibited: +
Thielaviopsis basicola
  Fungal species inhibited: +
Phytophthora infestans
  Fungal species inhibited: +
Trichoderma atroviridae
  Fungal species inhibited: +
Rhizoctonia solani
  Fungal species inhibited: +
Alternaria alternate
  Fungal species inhibited: +
Aureobasidium pullulans
  Fungal species inhibited: +
Cladosporium herbarum
  Fungal species inhibited: +
Rhizopus sp.
  Fungal species inhibited: +

From patent US20060248793A1, “Method for making fungi compatible artificial snow” (priority 2005, published 2006)
